Values of other authors in article PMC8287861 (Frontiers in Microbiology, 2021).
Converted amounts (≈) assume the structure as drawn. Where two headings read alike, the source gives them in different places.

Assays:
PAM4198 IMP-15 = test system: PAM4198 IMP-15; parameters: method as in Lomovskaya et al. (2020b); details: PAM4198, IMP-15, class B1; ref Lomovskaya et al. (2020b)
PAM4869 PDC-1 = test system: PAM4869 PDC-1; parameters: method as in Lomovskaya et al. (2020b); details: PAM4869, PDC-1, class C; ref Lomovskaya et al. (2020b)
PAM4743 CTX-M-15 = test system: PAM4743 CTX-M-15; parameters: method as in Lomovskaya et al. (2020b); details: PAM4743, CTX-M-15, class A; ref Lomovskaya et al. (2020b)
PAM4912 VEB-3 = test system: PAM4912 VEB-3; parameters: method as in Lomovskaya et al. (2020b); details: PAM4912, VEB-3, class A; ref Lomovskaya et al. (2020b)
PAM4878 TEM-10 = test system: PAM4878 TEM-10; parameters: method as in Lomovskaya et al. (2020b); details: PAM4878, TEM-10, class A; ref Lomovskaya et al. (2020b)
PAM4889 IMP-26 = test system: PAM4889 IMP-26; parameters: method as in Lomovskaya et al. (2020b); details: PAM4889, IMP-26, class B1; ref Lomovskaya et al. (2020b)
PAM4822 CTX-M-27 = test system: PAM4822 CTX-M-27; parameters: method as in Lomovskaya et al. (2020b); details: PAM4822, CTX-M-27, class A; ref Lomovskaya et al. (2020b)
PAM4888 IMP-4 = test system: PAM4888 IMP-4; parameters: method as in Lomovskaya et al. (2020b); details: PAM4888, IMP-4, class B1; ref Lomovskaya et al. (2020b)
PAM4689 KPC-3 = test system: PAM4689 KPC-3; parameters: method as in Lomovskaya et al. (2020b); details: PAM4689, KPC-3, class A-CARB; ref Lomovskaya et al. (2020b)
PAM4883 GIM-1 = test system: PAM4883 GIM-1; parameters: method as in Lomovskaya et al. (2020b); details: PAM4883, GIM-1, class B1; ref Lomovskaya et al. (2020b)
PAM4790 OXA-10 = test system: PAM4790 OXA-10; parameters: method as in Lomovskaya et al. (2020b); details: PAM4790, OXA-10, class D; ref Lomovskaya et al. (2020b)
PAM4881 VIM-7 = test system: PAM4881 VIM-7; parameters: method as in Lomovskaya et al. (2020b); details: PAM4881, VIM-7, class B1; ref Lomovskaya et al. (2020b)
PAM4186 CMY-2 = test system: PAM4186 CMY-2; parameters: method as in Lomovskaya et al. (2020b); details: PAM4186, CMY-2, class C; ref Lomovskaya et al. (2020b)
PAM4745 P99 = test system: PAM4745 P99; parameters: method as in Lomovskaya et al. (2020b); details: PAM4745, P99, class C; ref Lomovskaya et al. (2020b)
PAM4846 OXA-9 = test system: PAM4846 OXA-9; parameters: method as in Lomovskaya et al. (2020b); details: PAM4846, OXA-9, class D; ref Lomovskaya et al. (2020b)
PAM4179 NDM-1 = test system: PAM4179 NDM-1; parameters: method as in Lomovskaya et al. (2020b); details: PAM4179, NDM-1, class B1; ref Lomovskaya et al. (2020b)
PAM4794 NMC-1 = test system: PAM4794 NMC-1; parameters: method as in Lomovskaya et al. (2020b); details: PAM4794, NMC-1, class A-CARB; ref Lomovskaya et al. (2020b)
PAM4840 OXY-6-2 = test system: PAM4840 OXY-6-2; parameters: method as in Lomovskaya et al. (2020b); details: PAM4840, OXY-6-2, class A; ref Lomovskaya et al. (2020b)
PAM4886 GES-1 = test system: PAM4886 GES-1; parameters: method as in Lomovskaya et al. (2020b); details: PAM4886, GES-1, class A; ref Lomovskaya et al. (2020b)
PAM4910 VEB-2 = test system: PAM4910 VEB-2; parameters: method as in Lomovskaya et al. (2020b); details: PAM4910, VEB-2, class A; ref Lomovskaya et al. (2020b)
PAM4819 CTX-M-2 = test system: PAM4819 CTX-M-2; parameters: method as in Lomovskaya et al. (2020b); details: PAM4819, CTX-M-2, class A; ref Lomovskaya et al. (2020b)
PAM4917 NDM-7 = test system: PAM4917 NDM-7; parameters: method as in Lomovskaya et al. (2020b); details: PAM4917, NDM-7, class B1; ref Lomovskaya et al. (2020b)
PAM4887 IMP-1 = test system: PAM4887 IMP-1; parameters: method as in Lomovskaya et al. (2020b); details: PAM4887, IMP-1, class B1; ref Lomovskaya et al. (2020b)
PAM4827 OXA-1 = test system: PAM4827 OXA-1; parameters: method as in Lomovskaya et al. (2020b); details: PAM4827, OXA-1, class D; ref Lomovskaya et al. (2020b)
Pseudomonas aeruginosa = test system: Pseudomonas aeruginosa; parameters: method as in Lomovskaya et al. (2021); details: ref Lomovskaya et al. (2021); for MIC50 / MIC90: challenge panel, QPX7728 at 8 μg/ml

## CC(C)(O/N=C(\C(=O)N[C@@H]1C(=O)N2C(C(=O)[O-])=C(C[n+]3ccccc3)CS[C@H]12)c1csc(N)n1)C(=O)O [Ceftazidime, ceftazidime]
PAM4198 IMP-15
  MIC: 64 µg/mL (≈ 117 µM)
PAM4869 PDC-1
  MIC: 16 µg/mL (≈ 29.3 µM)
PAM4743 CTX-M-15
  MIC: 32 µg/mL (≈ 58.5 µM)
PAM4912 VEB-3
  MIC: >64 µg/mL
PAM4878 TEM-10
  MIC: >64 µg/mL
PAM4889 IMP-26
  MIC: >64 µg/mL
PAM4822 CTX-M-27
  MIC: 64 µg/mL (≈ 117 µM)
PAM4888 IMP-4
  MIC: >64 µg/mL
PAM4689 KPC-3
  MIC: >64 µg/mL
PAM4883 GIM-1
  MIC: >64 µg/mL
PAM4790 OXA-10
  MIC: 0.25 µg/mL (≈ 0.457 µM)
PAM4881 VIM-7
  MIC: 0.5 µg/mL (≈ 0.915 µM)
PAM4186 CMY-2
  MIC: 16 µg/mL (≈ 29.3 µM)
PAM4745 P99
  MIC: 64 µg/mL (≈ 117 µM)
PAM4846 OXA-9
  MIC: 0.25 µg/mL (≈ 0.457 µM)
PAM4179 NDM-1
  MIC: >64 µg/mL
PAM4794 NMC-1
  MIC: 1 µg/mL (≈ 1.83 µM)
PAM4840 OXY-6-2
  MIC: 0.5 µg/mL (≈ 0.915 µM)
PAM4886 GES-1
  MIC: 64 µg/mL (≈ 117 µM)
PAM4910 VEB-2
  MIC: >64 µg/mL
PAM4819 CTX-M-2
  MIC: 1 µg/mL (≈ 1.83 µM)
PAM4917 NDM-7
  MIC: >64 µg/mL
PAM4887 IMP-1
  MIC: >64 µg/mL

## CCN1CCN(C(=O)N[C@@H](C(=O)N[C@@H]2C(=O)N3[C@@H]2SC(C)(C)[C@@H]3C(=O)O)c2ccccc2)C(=O)C1=O [Piperacillin, piperacillin]
PAM4198 IMP-15
  MIC: 0.5 µg/mL (≈ 0.966 µM)
PAM4869 PDC-1
  MIC: >64 µg/mL
PAM4743 CTX-M-15
  MIC: >64 µg/mL
PAM4912 VEB-3
  MIC: 8 µg/mL (≈ 15.5 µM)
PAM4878 TEM-10
  MIC: 32 µg/mL (≈ 61.8 µM)
PAM4889 IMP-26
  MIC: 0.125 µg/mL (≈ 0.242 µM)
PAM4822 CTX-M-27
  MIC: >64 µg/mL
PAM4888 IMP-4
  MIC: 0.5 µg/mL (≈ 0.966 µM)
PAM4689 KPC-3
  MIC: >64 µg/mL
PAM4883 GIM-1
  MIC: >64 µg/mL
PAM4827 OXA-1
  MIC: 4 µg/mL (≈ 7.73 µM)
Pseudomonas aeruginosa; challenge panel (N = 290), with QPX7728, 8 or 16 μg/ml for cefepime and piperacillin, respectively
  % of isolates shifted by QPX7728 at or below breakpoint: 70.3%
Pseudomonas aeruginosa; All (N = 290)
  MIC50: >64 µg/mL
  MIC90: >64 µg/mL
Pseudomonas aeruginosa; MBL (N = 61)
  MIC50: >64 µg/mL
  MIC90: >64 µg/mL
Pseudomonas aeruginosa; No MBL (N = 229)
  MIC50: >64 µg/mL
  MIC90: >64 µg/mL
PAM4790 OXA-10
  MIC: 0.125 µg/mL (≈ 0.242 µM)
PAM4881 VIM-7
  MIC: 2 µg/mL (≈ 3.86 µM)
PAM4186 CMY-2
  MIC: 8 µg/mL (≈ 15.5 µM)
PAM4745 P99
  MIC: 64 µg/mL (≈ 124 µM)
PAM4846 OXA-9
  MIC: 8 µg/mL (≈ 15.5 µM)
PAM4179 NDM-1
  MIC: 64 µg/mL (≈ 124 µM)
PAM4794 NMC-1
  MIC: 16 µg/mL (≈ 30.9 µM)
PAM4840 OXY-6-2
  MIC: >64 µg/mL
PAM4886 GES-1
  MIC: 4 µg/mL (≈ 7.73 µM)
PAM4910 VEB-2
  MIC: 16 µg/mL (≈ 30.9 µM)
PAM4819 CTX-M-2
  MIC: 64 µg/mL (≈ 124 µM)
PAM4917 NDM-7
  MIC: 32 µg/mL (≈ 61.8 µM)
PAM4887 IMP-1
  MIC: 1 µg/mL (≈ 1.93 µM)
